Data: US5328902A, “7-(substituted)-9-[(substituted glycyl)amido]-6-demethyl-6-deoxytetracyclines” (American Cyanamid Co., priority 1992, dated 1994)
In brackets after ≈: the same amount, converted by molar mass.

What was measured:
Assay type in all cases: cell-based
[1] = system: Ps. acruginosa ATCC 27853; assay: MIC, agar dilution; conditions: Ps. acruginosa ATCC 27853
[2] = system: Enterococcus 12201; assay: MIC, agar dilution; conditions: Enterococcus 12201
[3] = system: E. coli UBMS 90-5; assay: MIC, agar dilution
[4] = system: S. mariescens FPOR 8733; assay: MIC, agar dilution
[5] = system: E. coli UBMS 89-1 Tet M; assay: microbe, parasite or virus in culture; conditions: E. coli UBMS 89-1 Tet M
[6] = system: E. coli PRP1 Tet A; assay: microbe, parasite or virus in culture; conditions: E. coli PRP1 Tet A
[7] = system: S. aureus UBMS 90-3; assay: MIC, agar dilution; conditions: S. aureus UBMS 90-3
[8] = system: S. aureus UBMS 88-5 Tet M; assay: microbe, parasite or virus in culture; conditions: S. aureus UBMS 88-5 Tet M
[9] = system: E. coli UBMS 90-4 Tet M; assay: microbe, parasite or virus in culture; conditions: E. coli UBMS 90-4 Tet M
[10] = system: S. aureus IVES 2943; assay: MIC, agar dilution; conditions: S. aureus IVES 2943
[11] = system: E. coli MC 4100 TNIOC Tet B; assay: microbe, parasite or virus in culture; conditions: E. coli MC 4100 TNIOC Tet B
[12] = system: S. aureus UBMS 88-7 Tet K; assay: microbe, parasite or virus in culture; conditions: S. aureus UBMS 88-7 Tet K
[13] = system: S. aureus UBMS 90-1 Tet M; assay: microbe, parasite or virus in culture; conditions: S. aureus UBMS 90-1 Tet M
[14] = system: S. aureus ROSE (MP); assay: MIC, agar dilution; conditions: S. aureus ROSE (MP)
[15] = system: S. aureus SMITH (MP); assay: MIC, agar dilution; conditions: S. aureus SMITH (MP)
[16] = system: E. coli #311 (MP); assay: MIC, agar dilution; conditions: E. coli #311 (MP)
[17] = system: S. aureus ATCC 29213; assay: MIC, agar dilution; conditions: S. aureus ATCC 29213
[18] = system: E. coli UBMS 88-1 Tet B; assay: microbe, parasite or virus in culture; conditions: E. coli UBMS 88-1 Tet B; 18 hours at 35° C.
[19] = system: S. aureus IVES 1 983; assay: MIC, agar dilution; conditions: S. aureus IVES 1 983
[20] = system: E. coli UBMS 89-2 Tet sens.; assay: MIC, agar dilution; conditions: E. coli UBMS 89-2 Tet sens.
[21] = system: E. coli J2175; assay: MIC, agar dilution; conditions: E. coli J2175
[22] = system: E. coli BAJ9003 IMP MUT; assay: microbe, parasite or virus in culture; conditions: E. coli BAJ9003 IMP MUT
[23] = system: E. coli J3272 Tet C; assay: microbe, parasite or virus in culture; conditions: E. coli J3272 Tet C
[24] = system: S. aureus NEMC 8769; assay: MIC, agar dilution; conditions: S. aureus NEMC 8769
[25] = system: E. coli J3272 Tet D; assay: microbe, parasite or virus in culture; conditions: E. coli J3272 Tet D
[26] = system: S. aureus UBMS 90-2 Tet M; assay: microbe, parasite or virus in culture; conditions: S. aureus UBMS 90-2 Tet M
[27] = system: E. coli MC 4100 Tet sens.; assay: MIC, agar dilution
[28] = system: X. maltophilia NEMC 87210; assay: MIC, agar dilution
[29] = system: S. hemolyticus AVHAH 88-3; assay: MIC, agar dilution; conditions: S. hemolyticus AVHAH 88-3
[30] = system: S. aureus UBMS 88-4; assay: MIC, agar dilution; conditions: S. aureus UBMS 88-4
[31] = system: E. coli ATCC 25922; assay: MIC, agar dilution; conditions: E. coli ATCC 25922
[32] = system: E. faecalis ATCC 29212; assay: MIC, agar dilution; conditions: E. faecalis ATCC 29212

| SMILES | MIC [1] | MIC [3] | MIC [4] | MIC [5] | MIC [6] | MIC [7] | MIC [8] | MIC [9] | MIC [10] | MIC [11] | MIC [12] | MIC [13] | MIC [14] | MIC [15] | MIC [16] | MIC [17] | MIC [18] | MIC [19] | MIC [20] | MIC [21] | further results |
| --- | --- | --- | --- | --- | --- | --- | --- | --- | --- | --- | --- | --- | --- | --- | --- | --- | --- | --- | --- | --- | --- |
| CN(C)c1cc(NC(=O)CNOCc2ccccc2)c(O)c2c1C[C@H]1C[C@H]3[C@H](N(C)C)C(O)=C(C(N)=O)C(=O)[C@@]3(O)C(O)=C1C2=O [X, [4S-(4-alpha,12aalpha)]-4,7-Bis(dimethylamino)-1,4,4a,5,5a,6,11,12a-octahydro-3,10, 12,12a-tetrahydroxy-1,11-dioxo-9-[[[(phenylmethoxy)amino]acetyl]amino]-2-naphthacenecarboxamide] | > 32 µg/mL | > 32 µg/mL | > 32 µg/mL | 16 µg/mL (≈ 25.2 µM) | > 32 µg/mL | 1 µg/mL (≈ 1.57 µM) | 2 µg/mL (≈ 3.15 µM) | > 32 µg/mL | 8 µg/mL (≈ 12.6 µM) | > 32 µg/mL | 4 µg/mL (≈ 6.29 µM) | 2 µg/mL (≈ 3.15 µM) | 16 µg/mL (≈ 25.2 µM) | 0.5 µg/mL (≈ 0.787 µM) | 16 µg/mL (≈ 25.2 µM) | 1 µg/mL (≈ 1.57 µM) | > 32 µg/mL | 8 µg/mL (≈ 12.6 µM) | > 32 µg/mL | > 32 µg/mL | MIC [2]: 4 µg/mL (≈ 6.29 µM); MIC [22]: 1 µg/mL (≈ 1.57 µM); MIC [23]: > 32 µg/mL; MIC [24]: 1 µg/mL (≈ 1.57 µM); MIC [25]: 16 µg/mL (≈ 25.2 µM); MIC [26]: 2 µg/mL (≈ 3.15 µM); MIC [27]: 4 µg/mL (≈ 6.29 µM); MIC [28]: 16 µg/mL (≈ 25.2 µM); MIC [29]: 4 µg/mL (≈ 6.29 µM); MIC [30]: 1 µg/mL (≈ 1.57 µM); MIC [31]: 16 µg/mL (≈ 25.2 µM); MIC [32]: 1 µg/mL (≈ 1.57 µM) |
| CN(C)c1cc(NC(=O)CNCCN2CCCCC2)c(O)c2c1C[C@H]1C[C@H]3[C@H](N(C)C)C(O)=C(C(N)=O)C(=O)[C@@]3(O)C(O)=C1C2=O [U, [4S-(4alpha,12alpha)]-4,7-Bis(dimethylamino)-1,4,4a,5,5a,6,11,12a-octahydro3,10,12,12a-tetrahydroxy-1,11-dioxo-9-[[[[2-(1-piperidinyl)ethyl]amino]acetyl]amino]-2-naphthacenecarboxamide] | > 32 µg/mL | 16 µg/mL (≈ 25 µM) | > 32 µg/mL | 16 µg/mL (≈ 25 µM) | > 32 µg/mL | 8 µg/mL (≈ 12.5 µM) | 16 µg/mL (≈ 25 µM) | 16 µg/mL (≈ 25 µM) | > 32 µg/mL | 32 µg/mL (≈ 49.9 µM) | 16 µg/mL (≈ 25 µM) | 32 µg/mL (≈ 49.9 µM) | > 32 µg/mL | 8 µg/mL (≈ 12.5 µM) | 16 µg/mL (≈ 25 µM) | 8 µg/mL (≈ 12.5 µM) | > 32 µg/mL | > 32 µg/mL | 32 µg/mL (≈ 49.9 µM) | 32 µg/mL (≈ 49.9 µM) | MIC [22]: 2 µg/mL (≈ 3.12 µM); MIC [23]: 16 µg/mL (≈ 25 µM); MIC [24]: 8 µg/mL (≈ 12.5 µM); MIC [26]: 8 µg/mL (≈ 12.5 µM); MIC [27]: 4 µg/mL (≈ 6.24 µM); MIC [28]: 16 µg/mL (≈ 25 µM); MIC [29]: 32 µg/mL (≈ 49.9 µM); MIC [30]: 8 µg/mL (≈ 12.5 µM); MIC [31]: 16 µg/mL (≈ 25 µM); MIC [32]: 8 µg/mL (≈ 12.5 µM) |
